Test results from patent US10717742B2, “Spiro[3H-indole-3,2′-pyrrolidin]-2(1H)-one compounds and derivatives as MDM2-P53 inhibitors” (Boehringer Ingelheim International GmbH, priority 2015, dated 2020).

Each compound was assayed against p53-MDM2 interaction (GST-MDM2 protein aa 23-117 / biotinylated p53 wt peptide) (Homo sapiens (Human), UniProt Q00987) (assay: Mdm2-p53 Inhibition AlphaScreen). Details: GST-MDM2 (aa 23-117) / biotinylated p53 wt peptide.
Format: binding
Procedure: Mdm2-p53 Inhibition AlphaScreen
15 μL of compound in 20% DMSO (serial pre-dilutions of compound are done in 100% DMSO) is pipetted to the wells of a white OptiPlate-96 (Perkin Elmer). A mix consisting of 20 nM GST-MDM2 protein (aa 23-117) and 20 nM biotinylated p53 wt peptide (encompassing aa 16-27 of wt human p53, amino acid sequence […]-Ttds-Lys-Biotin, molecular weight 2132.56 g/mol) is prepared in assay buffer (50 mM Tris/HCl pH 7.2; 120 mM NaCl; 0.1% bovine serum albumin (BSA); 5 mM dithiothreitol (DTT); 1 mM ethylenediaminetetraacetic acid (EDTA); 0.01% Tween 20). 30 μL of the mix is added to the compound dilutions and incubated for 15 min at rt while gently shaking the plate at 300 rounds per minute (rpm). Subsequently, 15 μL of premixed AlphaLISA Glutathione Acceptor Beads and AlphaScreen Streptavidin Donor Beads from PerkinElmer (in assay buffer at a concentration of 10 μg/mL each) are added and the samples are incubated for 30 min at rt in the dark (shaking 300 rpm). Afterwards, the signal is measured in a PerkinElmer Envision HIS Multilabel Reader using the AlphaScreen protocol from Perkin Elmer.
Each plate contains negative controls where biotinylated p53-peptide and GST-MDM2 are left out and replaced by assay buffer. Negative control values are entered as low basis value when using the software GraphPad Prism for calculations. Furthermore, a positive control (5% DMSO instead of test compound; with protein/peptide mix) is pipetted. Determination of IC50 values are carried out using GraphPad Prism 3.03 software (or updates thereof).

Sequence of p53-MDM2 interaction (GST-MDM2 protein aa 23-117 / biotinylated p53 wt peptide) (Q00987 23-117): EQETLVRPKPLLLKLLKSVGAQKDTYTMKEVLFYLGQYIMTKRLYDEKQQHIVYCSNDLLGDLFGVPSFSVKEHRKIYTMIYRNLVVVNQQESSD

Structure (SMILES)	IC50
Cc1c(C(=O)O)ccc2c1nc1n2CC[C@H]2[C@@H]1[C@H](c1ccnc(Cl)c1F)[C@]1(C(=O)Nc3cc(Cl)ccc31)N2CC1CC1 [Ib-207]	8 nM
O=C(NC(CO)(CO)CO)c1ccc2c(c1)nc1n2CC[C@H]2[C@@H]1[C@H](c1cccc(Cl)c1F)[C@]1(C(=O)Nc3cc(Cl)ccc31)N2CC1CC1 [Ib-218]	6 nM
O=C(c1ccc2c(c1)nc1n2CC[C@H]2[C@@H]1[C@H](c1cccc(Cl)c1F)[C@]1(C(=O)Nc3cc(Cl)ccc31)N2CC1CC1)N1CCOCC1 [Ib-220]	10 nM
CN1CCN(C(=O)c2ccc3c(c2)nc2n3CC[C@H]3[C@@H]2[C@H](c2cccc(Cl)c2F)[C@]2(C(=O)Nc4cc(Cl)ccc42)N3CC2CC2)CC1 [Ib-221]	10 nM
O=C(c1ccc2c(c1)nc1n2CC[C@H]2[C@@H]1[C@H](c1cccc(Cl)c1F)[C@]1(C(=O)Nc3cc(Cl)ccc31)N2CC1CC1)N1CC(O)C1 [Ib-227]	4 nM
O=C(NC1COCC1O)c1ccc2c(c1)nc1n2CC[C@H]2[C@@H]1[C@H](c1cccc(Cl)c1F)[C@]1(C(=O)Nc3cc(Cl)ccc31)N2CC1CC1 (some centres unmarked) [Ib-229]	4 nM
CC(C)CN1[C@H]2CCn3c(nc4cc(C(N)=O)ccc43)[C@H]2[C@H](c2cccc(Cl)c2F)[C@]12C(=O)Nc1cc(Cl)ccc12 [Ib-232]	3 nM
CNC(=O)c1ccc2c(c1)nc1n2CC[C@H]2[C@@H]1[C@H](c1cccc(Cl)c1F)[C@]1(C(=O)Nc3cc(Cl)ccc31)N2CC(C)C [Ib-233]	4 nM
CNC(=O)c1cc2nc3n(c2cc1OC)CC[C@H]1[C@@H]3[C@H](c2cccc(Cl)c2F)[C@]2(C(=O)Nc3cc(Cl)ccc32)N1CC1CC1 [Ib-235]	3 nM
COc1cc2c(cc1C(=O)N(C)C)nc1n2CC[C@H]2[C@@H]1[C@H](c1cccc(Cl)c1F)[C@]1(C(=O)Nc3cc(Cl)ccc31)N2CC1CC1 [Ib-236]	5 nM
CNC(=O)c1cc2nc3n(c2cc1C)CC[C@H]1[C@@H]3[C@H](c2cccc(Cl)c2F)[C@]2(C(=O)Nc3cc(Cl)ccc32)N1CC1CC1 [Ib-237]	10 nM
NC(=O)c1ccc2nc3n(c2c1)CC[C@H]1[C@@H]3[C@H](c2cccc(Cl)c2F)[C@]2(C(=O)Nc3cc(Cl)ccc32)N1CC1CC1 [Ib-238]	6 nM
NC(=O)c1ccc2c(c1)nc1n2C[C@H]2[C@@H]1[C@H](c1cccc(Cl)c1F)[C@]1(C(=O)Nc3cc(Cl)ccc31)N2CC1CC1 [Ib-239]	3 nM
CNC(=O)c1ccc2c(c1)nc1n2C[C@H]2[C@@H]1[C@H](c1cccc(Cl)c1F)[C@]1(C(=O)Nc3cc(Cl)ccc31)N2CC1CC1 [Ib-240]	3 nM
CCOc1cccc(CN2[C@H]3Cn4c(nc5cc(C(N)=O)ccc54)[C@H]3[C@H](c3cccc(Cl)c3F)[C@]23C(=O)Nc2cc(Cl)ccc23)c1 [Ib-241]	4 nM
CCOc1cccc(CN2[C@H]3Cn4c(nc5cc(C(N)=O)ccc54)[C@H]3[C@H](c3cccc(Cl)c3F)[C@]23C(=O)Nc2cc(Cl)ccc23)c1 [Ib-242]	2 nM
CCOc1cccc(CN2[C@@H]3Cn4c(nc5cc(C(N)=O)ccc54)[C@@H]3[C@@H](c3cccc(Cl)c3F)[C@@]23C(=O)Nc2cc(Cl)ccc23)c1 [Ib-243]	99 nM
CCOc1cccc(CN2[C@H]3Cn4c(nc5cc(C(=O)NO)ccc54)[C@H]3[C@H](c3cccc(Cl)c3F)[C@]23C(=O)Nc2cc(Cl)ccc23)c1 [Ib-244]	3 nM
O=C1Nc2cc(Cl)ccc2[C@@]12[C@@H](c1cccc(Cl)c1F)[C@@H]1c3nc4cc(CO)ccc4n3CC[C@@H]1N2CC1CC1 [Ib-245]	20 nM
Nc1ccc2c(c1)nc1n2CC[C@H]2[C@@H]1[C@H](c1cccc(Cl)c1F)[C@]1(C(=O)Nc3cc(Cl)ccc31)N2CC1CC1 [Ib-247]	27 nM
O=C1Nc2cc(Cl)ccc2[C@@]12[C@@H](c1cccc(Cl)c1F)[C@@H]1c3nc4cc(N5CCCCC5)ccc4n3CC[C@@H]1N2CC1CC1 [Ib-249]	240 nM
O=C1Nc2cc(Cl)ccc2[C@@]12[C@@H](c1cccc(Cl)c1F)[C@@H]1c3nc4ccccc4n3CC[C@@H]1N2CC1CC1 [Ib-253]	72 nM
Cc1c(C(=O)O)ccn2c3c(nc12)[C@@H]1[C@H](C3)N(CC2CC2)[C@@]2(C(=O)Nc3cc(Cl)ccc32)[C@H]1c1ccnc(Cl)c1F [Ic-23]	6 nM
CCOc1cccc(CN2[C@H]3Cc4c(nc5c(C)c(C(=O)O)ccn45)[C@H]3[C@H](c3ccnc(Cl)c3F)[C@]23C(=O)Nc2cc(Cl)ccc23)c1 [Ic-27]	13 nM

More lines, now with the values ahead:

IC50	Structure (SMILES)
3 nM	CNC(=O)c1ccc2c(c1)nc1n2CC[C@H]2[C@@H]1[C@H](c1cccc(Cl)c1F)[C@]1(C(=O)Nc3cc(Cl)ccc31)N2CC1CC1 [Ib-209]
4 nM	NC(=O)c1ccc2c(c1)nc1n2CC[C@H]2[C@@H]1[C@H](c1cccc(Cl)c1F)[C@]1(C(=O)Nc3cc(Cl)ccc31)N2CC1CC1 [Ib-210]
11 nM	CN(C)C(=O)c1ccc2c(c1)nc1n2CC[C@H]2[C@@H]1[C@H](c1cccc(Cl)c1F)[C@]1(C(=O)Nc3cc(Cl)ccc31)N2CC1CC1 [Ib-211]
5 nM	O=C(NC1CC1)c1ccc2c(c1)nc1n2CC[C@H]2[C@@H]1[C@H](c1cccc(Cl)c1F)[C@]1(C(=O)Nc3cc(Cl)ccc31)N2CC1CC1 [Ib-212]
7 nM	CC(C)(O)CNC(=O)c1ccc2c(c1)nc1n2CC[C@H]2[C@@H]1[C@H](c1cccc(Cl)c1F)[C@]1(C(=O)Nc3cc(Cl)ccc31)N2CC1CC1 [Ib-213]
3 nM	O=C(NC(CO)CO)c1ccc2c(c1)nc1n2CC[C@H]2[C@@H]1[C@H](c1cccc(Cl)c1F)[C@]1(C(=O)Nc3cc(Cl)ccc31)N2CC1CC1 [Ib-214]
4 nM	O=C(NCCO)c1ccc2c(c1)nc1n2CC[C@H]2[C@@H]1[C@H](c1cccc(Cl)c1F)[C@]1(C(=O)Nc3cc(Cl)ccc31)N2CC1CC1 [Ib-215]
7 nM	COCCNC(=O)c1ccc2c(c1)nc1n2CC[C@H]2[C@@H]1[C@H](c1cccc(Cl)c1F)[C@]1(C(=O)Nc3cc(Cl)ccc31)N2CC1CC1 [Ib-216]
4 nM	COCC(COC)NC(=O)c1ccc2c(c1)nc1n2CC[C@H]2[C@@H]1[C@H](c1cccc(Cl)c1F)[C@]1(C(=O)Nc3cc(Cl)ccc31)N2CC1CC1 [Ib-217]
5 nM	COCCOCCNC(=O)c1ccc2c(c1)nc1n2CC[C@H]2[C@@H]1[C@H](c1cccc(Cl)c1F)[C@]1(C(=O)Nc3cc(Cl)ccc31)N2CC1CC1 [Ib-219]
9 nM	NCCNC(=O)c1ccc2c(c1)nc1n2CC[C@H]2[C@@H]1[C@H](c1cccc(Cl)c1F)[C@]1(C(=O)Nc3cc(Cl)ccc31)N2CC1CC1 [Ib-222]
5 nM	CN(C)CCNC(=O)c1ccc2c(c1)nc1n2CC[C@H]2[C@@H]1[C@H](c1cccc(Cl)c1F)[C@]1(C(=O)Nc3cc(Cl)ccc31)N2CC1CC1 [Ib-223]
5 nM	CC1(NC(=O)c2ccc3c(c2)nc2n3CC[C@H]3[C@@H]2[C@H](c2cccc(Cl)c2F)[C@]2(C(=O)Nc4cc(Cl)ccc42)N3CC2CC2)COC1 [Ib-225]
5 nM	CC1(CNC(=O)c2ccc3c(c2)nc2n3CC[C@H]3[C@@H]2[C@H](c2cccc(Cl)c2F)[C@]2(C(=O)Nc4cc(Cl)ccc42)N3CC2CC2)COC1 [Ib-226]
5 nM	CN1CC(NC(=O)c2ccc3c(c2)nc2n3CC[C@H]3[C@@H]2[C@H](c2cccc(Cl)c2F)[C@]2(C(=O)Nc4cc(Cl)ccc42)N3CC2CC2)C1 [Ib-228]
10 nM	CN(O)C(=O)c1ccc2c(c1)nc1n2CC[C@H]2[C@@H]1[C@H](c1cccc(Cl)c1F)[C@]1(C(=O)Nc3cc(Cl)ccc31)N2CC1CC1 [Ib-230]
4 nM	O=C(NO)c1ccc2c(c1)nc1n2CC[C@H]2[C@@H]1[C@H](c1cccc(Cl)c1F)[C@]1(C(=O)Nc3cc(Cl)ccc31)N2CC1CC1 [Ib-231]
